This assay deals with T1, LXRβ (Homo sapiens, UniProt P55055).
T1 construct: Co-transfection expression plasmids, comprising full-length LXRα (pCMX-h LXRα[…] or LXRβ (pCMX-hLXRβ)); expressed in transfected cells; host or cells: CV-1 African Green Monkey Kidney Cells
T1 sequence (P55055 1-460): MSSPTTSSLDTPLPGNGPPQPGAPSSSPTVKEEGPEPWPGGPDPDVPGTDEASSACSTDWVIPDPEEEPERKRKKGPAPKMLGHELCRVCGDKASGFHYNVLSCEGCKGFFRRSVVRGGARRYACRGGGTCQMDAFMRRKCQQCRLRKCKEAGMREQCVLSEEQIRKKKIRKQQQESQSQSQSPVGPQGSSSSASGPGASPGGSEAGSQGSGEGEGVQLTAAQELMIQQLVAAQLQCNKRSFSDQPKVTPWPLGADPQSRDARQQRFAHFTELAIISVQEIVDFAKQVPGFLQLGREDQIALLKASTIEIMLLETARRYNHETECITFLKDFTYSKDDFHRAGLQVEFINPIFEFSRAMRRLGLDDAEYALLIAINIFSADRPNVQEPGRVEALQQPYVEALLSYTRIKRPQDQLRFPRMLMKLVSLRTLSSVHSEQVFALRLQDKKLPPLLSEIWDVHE
T1 sequence (P19793 1-462 partner): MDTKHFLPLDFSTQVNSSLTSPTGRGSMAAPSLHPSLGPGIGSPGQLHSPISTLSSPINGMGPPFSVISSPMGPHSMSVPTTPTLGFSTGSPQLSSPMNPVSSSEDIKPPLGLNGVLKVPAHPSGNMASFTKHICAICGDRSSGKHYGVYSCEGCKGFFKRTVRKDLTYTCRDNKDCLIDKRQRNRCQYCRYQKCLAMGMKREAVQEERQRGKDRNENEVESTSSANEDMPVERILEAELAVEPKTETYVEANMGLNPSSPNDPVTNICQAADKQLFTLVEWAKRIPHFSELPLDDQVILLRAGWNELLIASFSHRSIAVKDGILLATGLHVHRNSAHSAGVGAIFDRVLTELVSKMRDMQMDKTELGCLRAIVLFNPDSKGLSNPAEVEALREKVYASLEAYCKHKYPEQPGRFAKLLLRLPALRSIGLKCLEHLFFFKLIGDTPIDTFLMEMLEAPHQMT
Description: Co-transfection assay (LXRE luciferase reporter), LXRβ. Particulars: for pEC50: CV-1 cells transfected with pCMX-hLXRβ and LXREx1-Tk-Luciferase, 20 hours incubation; for Emax: read-out: % Efficacy. It is filed as cell-based. The arrangement: % Efficacy: concentration or dose not given beside the values. A digest of the protocol: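 CV-1 cells transiently co-transfected with full-length human LXRβ expression plasmid, LXREx1-Tk-luciferase reporter and β-galactosidase control, then exposed to compound for 20 h at 37 °C. Luciferase luminescence read; EC50 from 11-point, ½-log dose–response fit, efficacy relative to high-control agonist maximum.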
(Reporter assays use an easily measured gene product as a stand-in for the process of interest.)

Where [1] appears, read: LXRβ co-transfection, relative to high control 1-(2,4-difluorobenzyl)-2-oxo-6-(4-phenoxyphenyl)-4-(trifluoromethyl)-1,2-dihydropyridine-3-carbonitrile.

Each structure is given as a SMILES string. pEC50: −log10 of the molar value.

The record followed here is patent publication US9834542B2, “LXR modulators” (BRISTOL-MYERS SQUIBB COMPANY, priority 2013, dated 2017).

For `Cc1nc(-c2cc(-c3cc(F)c(CO)c(S(C)(=O)=O)c3)ccc2-n2cc(C(F)(F)F)nc2C)c(-c2cc(F)cc(F)c2)o1` [Example 448, (3′-(5-(3,5-difluorophenyl)-2-methyloxazol-4-yl)-3-fluoro-4′-(2-methyl-4-(trifluoromethyl)-1H-imidazol-1-yl)-5-(methylsulfonyl)biphenyl-4-yl)methanol], the pEC50 was 7.02. Besides, the Emax under setting [1] is 58%.

For the compound `Cc1nc(-c2cc(-c3cccc(S(C)(=O)=O)c3)ccc2-n2cc(C(F)(F)F)nc2C)c(-c2cc(F)cc(Cl)c2)o1` [Example 449, 5-(3-chloro-5-fluorophenyl)-2-methyl-4-(4-(2-methyl-4-(trifluoromethyl)-1H-imidazol-1-yl)-3′-(methylsulfonyl)biphenyl-3-yl)oxazole], the pEC50 is 6.74. Further, under setting [1], the Emax came to 57%.

For the compound `Cc1nc(-c2cc(-c3cc(F)c(CO)c(S(C)(=O)=O)c3)ccc2-n2cc(C(F)(F)F)nc2C)c(-c2cc(F)cc(Cl)c2)o1` [Example 450, (3′-(5-(3-chloro-5-fluorophenyl)-2-methyloxazol-4-yl)-3-fluoro-4′-(2-methyl-4-(trifluoromethyl)-1H-imidazol-1-yl)-5-(methylsulfonyl)biphenyl-4-yl)methanol], the pEC50 is 7.35. Under setting [1], the Emax was 49%.

`Cc1cc(-c2oc(C)nc2-c2cc(-c3cccc(S(C)(=O)=O)c3)ccc2-n2cc(C(F)(F)F)nc2C)cc(Cl)n1` [Example 451, 5-(2-chloro-6-methylpyridin-4-yl)-2-methyl-4-(4-(2-methyl-4-(trifluoromethyl)-1H-imidazol-1-yl)-3′-(methylsulfonyl)biphenyl-3-yl)oxazole]: the pEC50 is 6.90. Moreover, the Emax under setting [1] worked out at 61%.

`Cc1cc(-c2oc(C)nc2-c2cc(-c3cc(F)c(CO)c(S(C)(=O)=O)c3)ccc2-n2cc(C(F)(F)F)nc2C)cc(Cl)n1` [Example 452, (3′-(5-(2-chloro-6-methylpyridin-4-yl)-2-methyloxazol-4-yl)-3-fluoro-4′-(2-methyl-4-(trifluoromethyl)-1H-imidazol-1-yl)-5-(methylsulfonyl)biphenyl-4-yl)methanol]: the pEC50 was 7.08. The “% Efficacy” value under setting [1] amounted to 55%.

`Cc1nc(-c2cc(-c3cccc(S(C)(=O)=O)c3)ccc2-n2cc(C(F)(F)F)nc2C)c(-c2ccc(F)cc2F)o1` [Example 453, 5-(2,4-difluorophenyl)-2-methyl-4-(4-(2-methyl-4-(trifluoromethyl)-1H-imidazol-1-yl)-3′-(methylsulfonyl)biphenyl-3-yl)oxazole] showed a pEC50 of 7.15. Besides, the Emax under setting [1] worked out at 43%.

Consider `Cc1nc(-c2cc(-c3cc(F)c(CO)c(S(C)(=O)=O)c3)ccc2-n2cc(C(F)(F)F)nc2C)c(-c2ccc(F)cc2F)o1` [Example 454, (3′-(5-(2,4-difluorophenyl)-2-methyloxazol-4-yl)-3-fluoro-4′-(2-methyl-4-(trifluoromethyl)-1H-imidazol-1-yl)-5-(methylsulfonyl)biphenyl-4-yl)methanol], for which the pEC50 is 7.43. For the same compound, the Emax under setting [1] amounted to 38%.

On to `Cc1nc(-c2cc(-c3cccc(S(C)(=O)=O)c3)ccc2-n2cc(C(F)(F)F)nc2C)c(-c2cc(Cl)cc(Cl)c2)o1` [Example 455, 5-(3,5-dichlorophenyl)-2-methyl-4-(4-(2-methyl-4-(trifluoromethyl)-1H-imidazol-1-yl)-3′-(methylsulfonyl)biphenyl-3-yl)oxazole], for which the pEC50 is 6.72. Also, under setting [1], the Emax was found to be 43%.

`Cc1nc(-c2cc(-c3cc(F)c(CO)c(S(C)(=O)=O)c3)ccc2-n2cc(C(F)(F)F)nc2C)c(-c2cc(Cl)cc(Cl)c2)o1` [Example 456, (3′-(5-(3,5-dichlorophenyl)-2-methyloxazol-4-yl)-3-fluoro-4′-(2-methyl-4-(trifluoromethyl)-1H-imidazol-1-yl)-5-(methylsulfonyl)biphenyl-4-yl)methanol] gave a pEC50 of 7.24. Under setting [1], the Emax is 45%.

Turning to `Cc1nc(-c2cc(-c3cc(F)c(CO)c(S(C)(=O)=O)c3)ccc2-n2cc(C(F)(F)F)nc2C)c(-c2cc(F)c(OC(F)F)c(F)c2)o1` [Example 457, (3′-(5-(4-(difluoromethoxy)-3,5-difluorophenyl)-2-methyloxazol-4-yl)-3-fluoro-4′-(2-methyl-4-(trifluoromethyl)-1H-imidazol-1-yl)-5-(methylsulfonyl)biphenyl-4-yl)methanol], the pEC50 is 7.24. Besides, the Emax under setting [1] worked out at 76%.

In turn, `Cc1nc(-c2cc(-c3cccc(S(C)(=O)=O)c3)ccc2-n2cc(C(F)(F)F)nc2C)c(-c2ccc(Cl)c(OC(F)F)c2)o1` [Example 458, 5-(4-chloro-3-(difluoromethoxy)phenyl)-2-methyl-4-(4-(2-methyl-4-(trifluoromethyl)-1H-imidazol-1-yl)-3′-(methylsulfonyl)biphenyl-3-yl)oxazole] had a pEC50 of 6.40. In addition, the Emax under setting [1] came to 62%.

The compound `Cc1nc(-c2cc(-c3cc(F)c(CO)c(S(C)(=O)=O)c3)ccc2-n2cc(C(F)(F)F)nc2C)c(-c2ccc(Cl)c(OC(F)F)c2)o1` [Example 459, (3′-(5-(4-chloro-3-(difluoromethoxy)phenyl)-2-methyloxazol-4-yl)-3-fluoro-4′-(2-methyl-4-(trifluoromethyl)-1H-imidazol-1-yl)-5-(methylsulfonyl)biphenyl-4-yl)methanol] had a pEC50 of 6.76. In addition, under setting [1], the Emax was 77%.

`Cc1nc(-c2cc(-c3cccc(S(C)(=O)=O)c3)ccc2-n2cc(C(F)(F)F)nc2C)c(-c2ccc(F)c(OC(F)F)c2)o1` [Example 460, 5-(3-(difluoromethoxy)-4-fluorophenyl)-2-methyl-4-(4-(2-methyl-4-(trifluoromethyl)-1H-imidazol-1-yl)-3′-(methylsulfonyl)biphenyl-3-yl)oxazole] gave a pEC50 of 6.26. Besides, the Emax under setting [1] amounted to 64%.

Compound `Cc1nc(-c2cc(-c3cc(F)c(CO)c(S(C)(=O)=O)c3)ccc2-n2cc(C(F)(F)F)nc2C)c(-c2ccc(F)c(OC(F)F)c2)o1` [Example 461, (3′-(5-(3-(difluoromethoxy)-4-fluorophenyl)-2-methyloxazol-4-yl)-3-fluoro-4′-(2-methyl-4-(trifluoromethyl)-1H-imidazol-1-yl)-5-(methylsulfonyl)biphenyl-4-yl)methanol] gave a pEC50 of 6.90. The Emax under setting [1] was determined as 61%.

As for `Cc1nc(-c2cc(-c3cc(F)cc(S(C)(=O)=O)c3)ccc2-n2cc(C(F)(F)F)nc2C)c(-c2ccc(OC(F)F)c(F)c2)o1` [Example 462], the pEC50 is 6.63. Further, under setting [1], the Emax stood at 73%.

Take `Cc1nc(-c2cc(-c3cc(F)cc(S(C)(=O)=O)c3)ccc2-n2cc(C(F)(F)F)nc2C)c(-c2ccc3c(c2)OC(F)(F)O3)o1` [Example 463, 5-(2,2-difluorobenzo[d][1,3]dioxol-5-yl)-4-(3′-fluoro-4-(2-methyl-4-(trifluoromethyl)-1H-imidazol-1-yl)-5′-(methylsulfonyl)biphenyl-3-yl)-2-methyloxazole]: the pEC50 was 6.81. In addition, under setting [1], the Emax was 73%.

In the case of `COc1ncc(-c2oc(C)nc2-c2cc(-c3cccc(S(C)(=O)=O)c3)ccc2-n2cc(Cl)nc2C)cc1F` [Example 464, 4-(4-(4-chloro-2-methyl-1H-imidazol-1-yl)-3′-(methylsulfonyl)biphenyl-3-yl)-5-(5-fluoro-6-methoxypyridin-3-yl)-2-methyloxazole], the pEC50 was 5.33. Further, the Emax under setting [1] amounted to 42%.

In turn, `COc1ncc(-c2oc(C)nc2-c2cc(-c3cc(F)c(CO)c(S(C)(=O)=O)c3)ccc2-n2cc(Cl)nc2C)cc1F` [Example 465, (4′-(4-chloro-2-methyl-1H-imidazol-1-yl)-3-fluoro-3′-(5-(5-fluoro-6-methoxypyridin-3-yl)-2-methyloxazol-4-yl)-5-(methylsulfonyl)biphenyl-4-yl)methanol] gave a pEC50 of 6.62. For the same compound, under setting [1], the Emax came to 45%.

Compound `Cc1nc(-c2cc(-c3cccc(S(C)(=O)=O)c3)ccc2-n2cc(Cl)nc2C)c(-c2ccc(OC(F)F)c(F)c2)o1` [Example 466, 4-(4-(4-chloro-2-methyl-1H-imidazol-1-yl)-3′-(methylsulfonyl)biphenyl-3-yl)-5-(4-(difluoromethoxy)-3-fluorophenyl)-2-methyloxazole] had a pEC50 of 6.70. Further, the Emax under setting [1] came to 84%.

One may read the pEC50 as the EC50 on a negative log10 scale, so that one unit is a factor of ten.
